The test system of one assay is ACAT. The assay is described as follows: ACAT inhibitory activity (small intestine mucosa microsomes, [1-14C]-oleoyl CoA, cholesteryl oleate production). In kind it is biochemical, rabbit. The note with it: inhibition of cholesteryl oleate production vs control. Here is the method:
A high cholesterol feed [a feed added with cholesterol (1%), Clea Japan, Inc.] was fed to male Japanese white rabbits weighing 2-2.5 kg at 100 g per day and the rabbits were bred for 4 weeks. The rabbits were killed by bleeding under anesthesia and small intestine was removed. The mucous membrane of small intestine was peeled, collected and homogenated. The homogenate was centrifuged at 4° C. and 10,000 rpm for 15 min. The obtained supernatant was further centrifuged at 4° C. and 41,000 rpm for 30 minutes to give microsomal fractions. Using this microsomal suspension as an enzyme sample, dimethyl sulfoxide (DMSO, 5 μl) or a test compound dissolved in DMSO (test compound solution, 5 μl), and a reaction substrate [1-^14C]-oleoyl CoA were added to a reaction buffer. After incubation at 37° C. for 5 minutes, a chloroform-methanol mixture was added to stop the reaction. Water was added thereto and mixed, and chloroform layer was separated. The solvent was evaporated to dryness, and the residue was dissolved in hexane. The mixture was subjected to thin layer chromatography using a silica gel plate. The spots of cholesteryl oleate on the silica gel plate were scraped, and quantitatively assayed on a liquid scintillation counter. The ACAT inhibitory activity of the test compound was expressed as a proportion (%) of inhibition of cholesteryl oleate, namely, the proportion of inhibition of cholesteryl oleate production as compared to control.

A further assay concerns Male Wister rats. The experiment in a line: Serum total cholesterol reducing effect in rats on high cholesterol feed. The note with it: oral, once a day for 3 days, rat. In kind it is in vivo. As for the experimental part:
Serum Total Cholesterol Reducing Effect
Male Wister rats weighing 180-200 g were bred under free access to a high cholesterol feed [added with cholesterol (1%), cholic acid (0.5%) and coconut oil (10%), Clea Japan, Inc.] for 3 days, during which period a test compound (10-100 mg/kg) suspended in 5% gum arabic solution was forcibly administered once a day orally for 3 days. Only 5% gum arabic solution was administered to control animals. After final administration, the test animals were fasted for 5 hours and the blood was taken. The serum total cholesterol level was determined using a commercially available assay kit (cholesterol-E-Test Wako, Wako Pure Chemical Industries, Ltd.). The activity of the test compound was expressed as a proportion (%) of reduction of serum total cholesterol level, namely, the proportion of reduction of serum total cholesterol as compared to control.

The next assay concerns LDL. The experiment in a line: LDL peroxidation inhibitory effect (copper sulfate, malondialdehyde by thiobarbituric acid method). Particulars: concentration 10^-5M; 37°C, 24 hours; malondialdehyde production inhibitory ratio. In kind it is biochemical, rabbit. Here is the method:
LDL Peroxidation Inhibitory Effect
Male Japanese white rabbits weighing 2-2.5 kg were bred on 100 g per day of a high cholesterol feed [added with cholesterol (1%), Clea Japan, Inc.] for 4 weeks. The blood was taken from carotid and plasma was obtained. Then, LDL was fractionated from the plasma by ultracentrifugation, dialyzed for one day and preserved at 4° C. LDL (400 μg) and aqueous copper sulfate solution (final concentration 5 μM) were added to bufferized Ham F-10 medium (2 ml, GIBCO, USA). DMSO or a solution (20 μl) of test compound dissolved in DMSO was added and the mixture was incubated at 37° C. for 24 hours. After the completion of the incubation, LDL peroxide in medium was allowed to develop color by thiobarbituric acid method and assayed as malondialdehyde. The activity of the test compound was expressed as malondialdehyde production inhibitory ratio (%), namely, the proportion of inhibition of production of malondialdehyde as compared to control.

For a further assay, the system named is plasma. The assay is described as follows: Plasma lipoperoxidation inhibitory effect (copper sulfate, malondialdehyde by thiobarbituric acid method). In kind it is biochemical, rabbit. Particulars: concentration 10^-5M; 37°C, 3 hours; malondialdehyde production inhibitory ratio. As for the experimental part:
Plasma Lipoperoxidation Inhibitory Effect
The blood was taken from male Japanese white rabbits weighing 2-2.5 kg under anesthesia and heparinized plasma was separated by a conventional method. To the plasma (2.0 ml) was added DMSO or a solution (20 μl, final concentration 10^−5 M) of test compound dissolved in DMSO, and aqueous copper sulfate solution (final concentration 5 mM) was added immediately thereafter. The mixture was incubated at 37° C. for 3 hours. After the completion of the incubation, 20% trichloroacetic acid was added to stop the reaction. Then, the mixture was centrifuged at 4° C., 4,500 rpm for 15 minutes. The lipoperoxide in the supernatant thus obtained was assayed as malondialdehyde upon color development by thiobarbituric acid method. The activity of the test compound was expressed as malondialdehyde production inhibitory ratio (%), namely, the proportion of inhibition of production of malondialdehyde as compared to control.

Marks after values point to notes of the source that are not given here.

`CCCCC(C)(C)C(=O)Nc1c(C)cc(C)c2c1N(CC)CC2` [Example 6]: the “Result of Exp. Ex. 1: ACAT inhibition” value in the assay on ACAT (concentration 10^-5M) is on record as 99.8 ** %. Moreover, the “Result of Exp. Ex. 2: reduction of serum total cholesterol” value in the assay with Male Wister rats (dose 30 mg/kg/day) is 53.3 ** %. Moreover, the “Result of Exp. Ex. 3: LDL peroxidation inhibition” value in the assay with LDL amounted to 24.8%. Further, the “Result of Exp. Ex. 4: plasma lipoperoxidation inhibition” value with plasma amounted to 37.4%.

On to `CCCCCCN1CCc2c(C)cc(C)c(NC(=O)C(C)(C)CCC(=O)O)c21` [Example 20], for which the “Result of Exp. Ex. 1: ACAT inhibition” value in the assay on ACAT (concentration 10^-4M) was 22.7 * %. In the assay with Male Wister rats (dose 10 mg/kg/day), the “Result of Exp. Ex. 2: reduction of serum total cholesterol” value is listed as 7.8 * %. For the same molecule, the “Result of Exp. Ex. 3: LDL peroxidation inhibition” value in the assay on LDL is listed as 67.8%. In addition, in the assay with plasma, the “Result of Exp. Ex. 4: plasma lipoperoxidation inhibition” value is given as 91.1%.

Regarding `Cc1cc(C)c(NC(=O)C(C)(C)C)c2c1CCN2CCC(C)C` [Example 31], the “Result of Exp. Ex. 1: ACAT inhibition” value with ACAT (concentration 10^-5M) was 93.8 ** %. In the assay on Male Wister rats (dose 30 mg/kg/day), the “Result of Exp. Ex. 2: reduction of serum total cholesterol” value is 49.0 ** %. Also, in the assay on LDL, the “Result of Exp. Ex. 3: LDL peroxidation inhibition” value worked out at 90.3%. In the assay with plasma, the “Result of Exp. Ex. 4: plasma lipoperoxidation inhibition” value is 90.8%.

With `CCCCCCN1CCc2c1cc(C)c(NC(=O)NCCCC)c2C` [Example 1, 1-butyl-3-(1-hexyl-4,6-dimethylindolin-5-yl)urea], the “Result of Exp. Ex. 1: ACAT inhibition” value with ACAT (concentration 10^-5M) is reported as 76.6 ** %. For the same molecule, the “Result of Exp. Ex. 2: reduction of serum total cholesterol” value in the assay on Male Wister rats (dose 100 mg/kg/day) is on record as 12.9 *** %. The “Result of Exp. Ex. 3: LDL peroxidation inhibition” value in the assay with LDL is listed as 99.2%. For the same molecule, the “Result of Exp. Ex. 4: plasma lipoperoxidation inhibition” value with plasma came out at 94.3%.

Turning to `CC(=O)OCCN1CCc2c(C)cc(C)c(NC(=O)C(C)(C)C)c21` [Example 22], the “Result of Exp. Ex. 1: ACAT inhibition” value in the assay with ACAT (concentration 10^-5M) is 78.5 ** %. Besides, the “Result of Exp. Ex. 2: reduction of serum total cholesterol” value in the assay on Male Wister rats (dose 100 mg/kg/day) is reported as 38.6 *** %. Also, in the assay on LDL, the “Result of Exp. Ex. 3: LDL peroxidation inhibition” value was found to be 40.6%. Moreover, the “Result of Exp. Ex. 4: plasma lipoperoxidation inhibition” value in the assay with plasma came out at 92.8%.

On to `CCOCCN1CCc2c(C)cc(C)c(NC(=O)C(C)(C)C)c21` [Example 24], for which, in the assay on ACAT (concentration 10^-5M), the “Result of Exp. Ex. 1: ACAT inhibition” value is given as 97.1 ** %. In addition, the “Result of Exp. Ex. 2: reduction of serum total cholesterol” value with Male Wister rats (dose 30 mg/kg/day) is recorded as 28.3 ** %. In addition, in the assay with LDL, the “Result of Exp. Ex. 3: LDL peroxidation inhibition” value turned out to be 42.2%. Further, the “Result of Exp. Ex. 4: plasma lipoperoxidation inhibition” value with plasma stood at 90.5%.

As to `CCCCN1CCc2c(C)cc(C)c(NC(=O)C(C)(C)CCCC)c21` [Example 9], the “Result of Exp. Ex. 1: ACAT inhibition” value in the assay with ACAT (concentration 10^-5M) is given as 81.3 ** %. Besides, the “Result of Exp. Ex. 2: reduction of serum total cholesterol” value in the assay on Male Wister rats (dose 30 mg/kg/day) is 51.3 ** %. Also, the “Result of Exp. Ex. 3: LDL peroxidation inhibition” value in the assay with LDL is 93.7%. Moreover, the “Result of Exp. Ex. 4: plasma lipoperoxidation inhibition” value in the assay with plasma is given as 81.6%.

For the origin of these results see patent US6489475B2, “Method of producing heterocyclic derivatives” (Sankyo Company, Limited, priority 1994, dated 2002).
